# Numbered stars: 1 amine (or outer) side, 2 acyl side, 3 side chain; on linkers, the order of the positions; unused ones are H or OH. Square brackets hold non-standard residues; d marks the D form. Peptide text beside a SMILES is read from it. * marks the point of attachment. Phe(3-CF3) = N[C@@H](Cc1cccc(C(F)(F)F)c1)C(=O)O; X1 = CCCC(N[*:1])C(=O)C(=O)[*:2]; Chg = N[C@H](C(=O)O)C1CCCCC1; Phg = N[C@H](C(=O)O)c1ccccc1; Boc = CC(C)(C)OC(=O)*
# Target: NS3 (Hepatitis C virus, UniProt A3EZJ3)
# Assay: Binding affinity for HCV NS3 protease measured by HCV continuous assay
# Parameters: species or system Hepacivirus hominis
# NS3, sequence (A3EZJ3 whole entry): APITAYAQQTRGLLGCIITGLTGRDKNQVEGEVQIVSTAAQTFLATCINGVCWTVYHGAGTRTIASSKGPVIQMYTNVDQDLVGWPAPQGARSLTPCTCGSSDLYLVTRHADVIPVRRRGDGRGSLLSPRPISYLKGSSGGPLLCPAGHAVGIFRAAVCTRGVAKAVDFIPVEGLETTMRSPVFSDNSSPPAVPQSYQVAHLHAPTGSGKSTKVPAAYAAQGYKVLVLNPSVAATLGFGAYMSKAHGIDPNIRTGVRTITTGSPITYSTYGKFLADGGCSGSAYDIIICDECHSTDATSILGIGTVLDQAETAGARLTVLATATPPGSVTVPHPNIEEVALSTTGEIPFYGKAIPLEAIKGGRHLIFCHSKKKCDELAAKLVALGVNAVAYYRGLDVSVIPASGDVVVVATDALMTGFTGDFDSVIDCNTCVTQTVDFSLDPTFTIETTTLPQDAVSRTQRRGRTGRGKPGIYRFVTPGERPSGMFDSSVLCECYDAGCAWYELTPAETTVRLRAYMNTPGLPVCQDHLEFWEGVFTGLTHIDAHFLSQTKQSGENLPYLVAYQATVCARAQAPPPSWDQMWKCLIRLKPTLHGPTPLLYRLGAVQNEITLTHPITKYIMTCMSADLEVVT
row,Ki [nM],SMILES
1,310,CCCC(NC(=O)[C@@H]1Cc2cccc(c2)OCCCCCCC(=O)N[C@@H](C2CCCCC2)C(=O)N1)C(=O)C(=O)NCC(=O)N[C@H](C(=O)N(C)C)c1ccccc1 (some centres not stated)
2,8000,CCCC(NC(=O)[C@H](Cc1cccc(C(F)(F)F)c1)NC(=O)[C@@H](NC(=O)OC(C)(C)C)C1CCCCC1)C(=O)C(=O)NCC(=O)N[C@H](C(N)=O)c1ccccc1 (some centres not stated) (Boc-[Chg][Phe(3-CF3)][X1]G[Phg]-NH2)
3,5500,CCCC(NC(=O)[C@@H]1Cc2cccc(c2)OCCCCCCC(=O)N[C@@H](C2CCCCC2)C(=O)N1)C(=O)C(=O)NCC(=O)N[C@H](C(=O)OC(C)(C)C)c1ccccc1 (some centres not stated)
4,170,CCCC(NC(=O)[C@@H]1Cc2cccc(c2)OCCCCCCC(=O)N[C@@H](C2CCCCC2)C(=O)N1)C(=O)C(=O)NCC(=O)N[C@H](C(=O)NC)c1ccccc1 (some centres not stated)
5,1200,CCCC(NC(=O)[C@@H]1Cc2cccc(c2)OCCCCCC(=O)N[C@@H](C2CCCCC2)C(=O)N1)C(=O)C(=O)NCC(=O)N[C@H](C(=O)O)c1ccccc1 (some centres not stated)
6,160,CCCC(NC(=O)[C@@H]1Cc2cccc(c2)OCCCCCCC(=O)N[C@@H](C2CCCCC2)C(=O)N1)C(=O)C(=O)NCC(=O)N[C@H](C(=O)O)c1ccccc1 (some centres not stated)
7,> 8900,CCCC(NC(=O)[C@@H]1Cc2cccc(c2)OCCCCCC(=O)N[C@@H](C2CCCCC2)C(=O)N1)C(=O)C(=O)NCC(=O)N[C@H](C(=O)OC(C)(C)C)c1ccccc1 (some centres not stated)

# Reference: ChEMBL document CHEMBL1141101, “Design, synthesis, and biological activity of m-tyrosine-based 16- and 17-membered macrocyclic inhibitors of hepatitis C virus NS3 serine protease” (J Med Chem, 2005)
